# According to publication PMC7344628, “Bone-Seeking Matrix Metalloproteinase Inhibitors for the Treatment of Skeletal Malignancy” (Pharmaceuticals, 2020):
# Where two headings read alike, the source gives them in different places.
# What was measured:
# Experiment in all cases: fluorogenic peptide substrate assay
# Format in all cases: biochemical
# MMP-13 = target: T1, MMP-13 (Homo sapiens, UniProt P45452)
# T1 construct: gene MMP13
# Excerpt: fluorogenic peptide substrate assay on MMP-13
# MMP-8 = target: T2, MMP-8 (Homo sapiens, UniProt P22894)
# T2 construct: gene MMP8
# Excerpt: fluorogenic peptide substrate assay on MMP-8
# MMP-9 = target: T3, MMP-9 (Homo sapiens, UniProt P14780)
# T3 construct: gene MMP9
# Excerpt: fluorogenic peptide substrate assay on MMP-9
# MMP-2 = target: T4, MMP-2 (Homo sapiens, UniProt P08253)
# T4 construct: gene MMP2
# Excerpt: fluorogenic peptide substrate assay on MMP-2
# T2 sequence (P22894 100-262 limits assumed): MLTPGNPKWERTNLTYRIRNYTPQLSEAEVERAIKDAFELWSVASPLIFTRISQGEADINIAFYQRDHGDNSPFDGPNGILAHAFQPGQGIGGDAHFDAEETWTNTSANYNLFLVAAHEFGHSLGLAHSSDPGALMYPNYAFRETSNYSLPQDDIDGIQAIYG
# T3 sequence (P14780 107-444 limits assumed): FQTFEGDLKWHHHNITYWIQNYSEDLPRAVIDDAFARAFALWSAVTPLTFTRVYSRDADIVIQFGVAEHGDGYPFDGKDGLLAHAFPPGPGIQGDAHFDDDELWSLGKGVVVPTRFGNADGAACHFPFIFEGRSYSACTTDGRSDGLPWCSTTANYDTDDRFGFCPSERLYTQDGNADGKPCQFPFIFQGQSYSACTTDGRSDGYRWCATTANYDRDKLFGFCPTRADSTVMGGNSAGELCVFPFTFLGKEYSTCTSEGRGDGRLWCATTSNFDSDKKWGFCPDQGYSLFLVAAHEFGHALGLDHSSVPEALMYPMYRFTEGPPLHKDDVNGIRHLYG
# T4 sequence (P08253 110-446 limits assumed): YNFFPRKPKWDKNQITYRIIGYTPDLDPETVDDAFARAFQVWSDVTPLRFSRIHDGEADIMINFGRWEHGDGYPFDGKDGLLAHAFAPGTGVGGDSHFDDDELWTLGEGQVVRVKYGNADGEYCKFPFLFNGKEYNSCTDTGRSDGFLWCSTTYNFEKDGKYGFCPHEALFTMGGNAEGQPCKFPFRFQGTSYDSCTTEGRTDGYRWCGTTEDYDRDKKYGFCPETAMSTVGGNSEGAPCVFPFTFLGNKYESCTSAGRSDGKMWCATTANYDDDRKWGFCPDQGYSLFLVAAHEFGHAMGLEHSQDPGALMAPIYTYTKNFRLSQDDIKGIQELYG
IC50 (MMP-13),IC50 (MMP-8),IC50 (MMP-9),"IC50 (MMP-2; OmniMMP 2.5 µM or OmniMMP RED 1 µM, pH 7.5, 1 mM CaCl2, 1 µM ZnCl2, 15 min preincubation, 37 °C)",IC50 (MMP-2),Compound
0.74 ± 0.06 µM,0.4 ± 0.03 µM,> 100 µM,0.14 ± 0.04 µM,–,O=P(O)(O)C(NS(=O)(=O)c1ccc(-c2ccccc2)cc1)P(=O)(O)O [ML 115]
68.9 ± 10.2 µM,66 ± 8 µM,> 100 µM,–,19 ± 3 µM,"Nc1ccc(S(=O)(=O)NC(P(=O)(O)O)P(=O)(O)O)cc1 [compound 1, (4-aminophenylsulfonylamino)methyl-1,1-bisphosphonic acid]"
9.6 ± 0.4 µM,26.8 ± 0.9 µM,> 100 µM,–,18.7 ± 0.8 µM,"O=P(O)(O)C(NS(=O)(=O)c1ccc2ccccc2c1)P(=O)(O)O [compound 2, (2-naphthylsulfonylamino)methyl-1,1-bisphosphonic acid]"
14.6 ± 0.8 µM,31.3 ± 1.2 µM,57 ± 2 µM,–,15.2 ± 0.5 µM,"O=P(O)(O)C(NS(=O)(=O)c1cccc2ccccc12)P(=O)(O)O [compound 3, (1-naphthylsulfonylamino)methyl-1,1-bisphosphonic acid]"
15 ± 6 µM,48 ± 15 µM,13.8 ± 0.6 µM,–,2.8 ± 0.6 µM,"O=C(Nc1ccccc1)Nc1ccc(S(=O)(=O)NC(P(=O)(O)O)P(=O)(O)O)cc1 [compound 4, (4-(3-phenylureido)phenylsulfonylamino)methyl-1,1-bisphosphonic acid]"
18.1 ± 1.5 µM,45 ± 5 µM,15 ± 6 µM,–,5.3 ± 0.4 µM,"O=C1c2ccccc2C(=O)N1c1ccc(S(=O)(=O)NC(P(=O)(O)O)P(=O)(O)O)cc1 [compound 5, (4-(1,3-dioxoisoindolin-2-yl)phenylsulfonylamino)methyl-1,1-bisphosphonic acid]"
2 ± 0.7 µM,1.88 ± 0.03 µM,2.3 ± 0.1 µM,–,2.75 ± 0.35 µM,"O=C(Nc1ccc(S(=O)(=O)NC(P(=O)(O)O)P(=O)(O)O)cc1)c1ccccc1 [compound 6, (4-benzamidophenylsulfonylamino)methyl-1,1-bisphosphonic acid]"
28 ± 4 µM,79 ± 8 µM,50 ± 11 µM,–,9 ± 0.8 µM,"O=C(Nc1cccc(S(=O)(=O)NC(P(=O)(O)O)P(=O)(O)O)c1)c1ccccc1 [compound 7, (3-benzamidophenylsulfonylamino)methyl-1,1-bisphosphonic acid]"
3.3 ± 0.7 µM,0.78 ± 0.18 µM,0.67 ± 0.25 µM,–,0.958 ± 0.018 µM,"Cc1ccc(C(=O)Nc2ccc(S(=O)(=O)NC(P(=O)(O)O)P(=O)(O)O)cc2)cc1 [compound 8, (4-(4-methylbenzamido)phenylsulfonylamino)methyl-1,1-bisphosphonic acid]"
0.14 ± 0.05 µM,0.66 ± 0.13 µM,0.088 ± 0.012 µM,–,0.67 ± 0.16 µM,"O=C(Nc1ccc(S(=O)(=O)NC(P(=O)(O)O)P(=O)(O)O)cc1)c1ccc(Br)cc1 [compound 9, (4-(4-bromobenzamido)phenylsulfonylamino)methyl-1,1-bisphosphonic acid]"
15.9 ± 1.9 µM,17 ± 4 µM,> 100 µM,–,4.2 ± 1.3 µM,"O=C(Nc1ccc(S(=O)(=O)NC(P(=O)(O)O)P(=O)(O)O)cc1)c1cccc(Br)c1 [compound 10, (4-(3-bromobenzamido)phenylsulfonylamino)methyl-1,1-bisphosphonic acid]"
0.61 ± 0.16 µM,0.46 ± 0.11 µM,0.43 ± 0.1 µM,–,1.7 ± 0.3 µM,"O=C(Nc1ccc(S(=O)(=O)NC(P(=O)(O)O)P(=O)(O)O)cc1)c1ccc([N+](=O)[O-])cc1 [compound 11, (4-(4-nitrobenzamido)phenylsulfonylamino)methyl-1,1-bisphosphonic acid]"
12 ± 5 µM,25 ± 12 µM,21.5 ± 0.7 µM,–,2.7 ± 1 µM,"O=C(Nc1ccc(S(=O)(=O)NC(P(=O)(O)O)P(=O)(O)O)cc1)c1cccc2ccccc12 [compound 12, (4-(1-naphthamido)phenylsulfonylamino)methyl-1,1-bisphosphonic acid]"
9.3 ± 0.5 µM,16.6 ± 1.9 µM,76 ± 8 µM,–,3.9 ± 0.5 µM,"O=C(Nc1ccc(S(=O)(=O)NC(P(=O)(O)O)P(=O)(O)O)cc1)c1ccc2ccccc2c1 [compound 13, (4-(2-naphthamido)phenylsulfonylamino)methyl-1,1-bisphosphonic acid]"
